The source made the active and inactive calls. How the calls were made is not given here.
Tested on: CCRIS mutagenicity, Ames/micronucleus/aberration tests
Experiment: CCRIS mutagenicity studies
[1] = Test System: AMES SALMONELLA TYPHIMURIUM, Strain/Indicator: TA98, Metabolic Activation: NONE, Method: STANDARD PLATE
[2] = Test System: AMES SALMONELLA TYPHIMURIUM, Strain/Indicator: TA98, Metabolic Activation: RAT, LIVER, S-9, AROCLOR 1254, Method: STANDARD PLATE
[3] = Test System: AMES SALMONELLA TYPHIMURIUM, Strain/Indicator: TA100, Metabolic Activation: NONE, Method: STANDARD PLATE
[4] = Test System: AMES SALMONELLA TYPHIMURIUM, Strain/Indicator: TA100, Metabolic Activation: RAT, LIVER, S-9, AROCLOR 1254, Method: STANDARD PLATE
[5] = Test System: AMES SALMONELLA TYPHIMURIUM, Strain/Indicator: TA100, Metabolic Activation: NONE, Method: PREINCUBATION
[6] = Test System: AMES SALMONELLA TYPHIMURIUM, Strain/Indicator: TA1535, Metabolic Activation: NONE, Method: STANDARD PLATE

Cn1cnc2c(N)ncnc21
mutagenic call (Test System: AMES SALMONELLA TYPHIMURIUM, Strain/Indicator: TA97, Metabolic Activation: NONE, Method: STANDARD PLATE): inactive; negative | mutagenic call (Test System: AMES SALMONELLA TYPHIMURIUM, Strain/Indicator: TA97, Metabolic Activation: RAT, LIVER, S-9, AROCLOR 1254, Method: STANDARD PLATE): inactive; negative | mutagenic call [1]: inactive; negative | mutagenic call [2]: active; positive | mutagenic call [3]: inactive; negative | mutagenic call [4]: inactive; negative

COc1ccc2c(c1)C(=O)c1c(OC)c(OC)cc3ccnc-2c13
mutagenic call (Test System: AMES SALMONELLA TYPHIMURIUM, Strain/Indicator: TA98, Metabolic Activation: RAT, LIVER, S-9, PHENOBARBITAL AND BETA-NAPHTHOFLAVONE, Method: PREINCUBATION): active; positive | mutagenic call (Test System: AMES SALMONELLA TYPHIMURIUM, Strain/Indicator: TA100, Metabolic Activation: RAT, LIVER, S-9, PHENOBARBITAL AND BETA-NAPHTHOFLAVONE, Method: PREINCUBATION): active; positive

CNC(=C[N+](=O)[O-])NCCSCc1ccc(CN(C)C)o1
mutagenic call (Test System: AMES SALMONELLA TYPHIMURIUM, Strain/Indicator: TA92, Metabolic Activation: NONE, Method: PREINCUBATION): inactive; negative | mutagenic call (Test System: AMES SALMONELLA TYPHIMURIUM, Strain/Indicator: TA92, Metabolic Activation: RAT, LIVER, S-9, PHENOBARBITAL AND 5,6-BENZOFLAVONE, Method: PREINCUBATION): inactive; negative | mutagenic call (Test System: AMES SALMONELLA TYPHIMURIUM, Strain/Indicator: TA94, Metabolic Activation: NONE, Method: PREINCUBATION): inactive; negative | mutagenic call (Test System: AMES SALMONELLA TYPHIMURIUM, Strain/Indicator: TA94, Metabolic Activation: RAT, LIVER, S-9, PHENOBARBITAL AND 5,6-BENZOFLAVONE, Method: PREINCUBATION): inactive; negative | mutagenic call (Test System: AMES SALMONELLA TYPHIMURIUM, Strain/Indicator: TA98, Metabolic Activation: NONE, Method: PREINCUBATION): inactive; negative | mutagenic call (Test System: AMES SALMONELLA TYPHIMURIUM, Strain/Indicator: TA98, Metabolic Activation: RAT, LIVER, S-9, PHENOBARBITAL AND 5,6-BENZOFLAVONE, Method: PREINCUBATION): inactive; negative | mutagenic call [5]: inactive; negative | mutagenic call (Test System: AMES SALMONELLA TYPHIMURIUM, Strain/Indicator: TA100, Metabolic Activation: RAT, LIVER, S-9, PHENOBARBITAL AND 5,6-BENZOFLAVONE, Method: PREINCUBATION): inactive; negative | mutagenic call (Test System: AMES SALMONELLA TYPHIMURIUM, Strain/Indicator: TA1535, Metabolic Activation: NONE, Method: PREINCUBATION): inactive; negative | mutagenic call (Test System: AMES SALMONELLA TYPHIMURIUM, Strain/Indicator: TA1535, Metabolic Activation: RAT, LIVER, S-9, PHENOBARBITAL AND 5,6-BENZOFLAVONE, Method: PREINCUBATION): inactive; negative | mutagenic call (Test System: AMES SALMONELLA TYPHIMURIUM, Strain/Indicator: TA1537, Metabolic Activation: NONE, Method: PREINCUBATION): inactive; negative | mutagenic call (Test System: AMES SALMONELLA TYPHIMURIUM, Strain/Indicator: TA1537, Metabolic Activation: RAT, LIVER, S-9, PHENOBARBITAL AND 5,6-BENZOFLAVONE, Method: PREINCUBATION): inactive; negative | mutagenic call (Test System: AMES SALMONELLA TYPHIMURIUM, Strain/Indicator: TA1538, Metabolic Activation: NONE, Method: PREINCUBATION): inactive; negative | mutagenic call (Test System: AMES SALMONELLA TYPHIMURIUM, Strain/Indicator: TA1538, Metabolic Activation: RAT, LIVER, S-9, PHENOBARBITAL AND 5,6-BENZOFLAVONE, Method: PREINCUBATION): inactive; negative | mutagenic call (Test System: E. COLI, Strain/Indicator: WP2 UVRA, Metabolic Activation: NONE, Method: PREINCUBATION): inactive; negative | mutagenic call (Test System: E. COLI, Strain/Indicator: WP2 UVRA, Metabolic Activation: RAT, LIVER, S-9, PHENOBARBITAL AND 5,6-BENZOFLAVONE, Method: PREINCUBATION): inactive; negative

CC1=C[C@H](O)[C@H]2C[C@@H]1C2(C)C
mutagenic call [1]: inactive; negative | mutagenic call (Test System: AMES SALMONELLA TYPHIMURIUM, Strain/Indicator: TA98, Metabolic Activation: RAT, LIVER, S-9, Method: STANDARD PLATE): inactive; negative | mutagenic call [3]: inactive; negative | mutagenic call (Test System: AMES SALMONELLA TYPHIMURIUM, Strain/Indicator: TA100, Metabolic Activation: RAT, LIVER, S-9, Method: STANDARD PLATE): inactive; negative | mutagenic call [6]: inactive; negative | mutagenic call (Test System: AMES SALMONELLA TYPHIMURIUM, Strain/Indicator: TA1535, Metabolic Activation: RAT, LIVER, S-9, Method: STANDARD PLATE): inactive; negative | mutagenic call (Test System: AMES SALMONELLA TYPHIMURIUM, Strain/Indicator: TA1538, Metabolic Activation: NONE, Method: STANDARD PLATE): inactive; negative | mutagenic call (Test System: AMES SALMONELLA TYPHIMURIUM, Strain/Indicator: TA1538, Metabolic Activation: RAT, LIVER, S-9, Method: STANDARD PLATE): inactive; negative

O=C(O)Nc1ccccc1
mutagenic call [1]: inactive; negative | mutagenic call [2]: inactive; negative | mutagenic call [3]: inactive; negative | mutagenic call [4]: inactive; negative

C=C(C)C1CO1 (stereo not given)
mutagenic call [1]: inactive; negative | mutagenic call [3]: inactive; negative

C=C(CC(=O)OCC)C(=O)OCC
mutagenic call (Test System: Chinese hamster ovary cells, Metabolic Activation: None, Method: CHO/HGPRT assay): inactive; negative

Cc1ccc2nsc(N)c2c1
mutagenic call [1]: inactive; negative | mutagenic call (Test System: AMES SALMONELLA TYPHIMURIUM, Strain/Indicator: TA98, Metabolic Activation: S-9, Method: STANDARD PLATE): active; positive | mutagenic call [3]: inactive; negative | mutagenic call (Test System: AMES SALMONELLA TYPHIMURIUM, Strain/Indicator: TA100, Metabolic Activation: S-9, Method: STANDARD PLATE): active; positive | mutagenic call [6]: inactive; negative | mutagenic call (Test System: AMES SALMONELLA TYPHIMURIUM, Strain/Indicator: TA1535, Metabolic Activation: S-9, Method: STANDARD PLATE): inactive; negative | mutagenic call (Test System: AMES SALMONELLA TYPHIMURIUM, Strain/Indicator: TA1537, Metabolic Activation: NONE, Method: STANDARD PLATE): inactive; negative | mutagenic call (Test System: AMES SALMONELLA TYPHIMURIUM, Strain/Indicator: TA1537, Metabolic Activation: S-9, Method: STANDARD PLATE): active; positive

Fc1ccc2cccnc2c1
mutagenic call (Test System: AMES SALMONELLA TYPHIMURIUM, Strain/Indicator: TA100, Metabolic Activation: RAT LIVER S-9, PHENOBARBITAL AND 5,6-BENZOFLAVONE, Method: PREINCUBATION): active; positive | mutagenic call (Test System: AMES SALMONELLA TYPHIMURIUM, Strain/Indicator: TA100, Metabolic Activation: RAT, LIVER, S-9, AROCLOR 1254, Method: PREINCUBATION): active; positive | mutagenic call (Test System: UDS RODENT HEPATOCYTES, Strain/Indicator: THY INCORP (NON-S-PHASE), Metabolic Activation: NONE, Method: AUTORADIOGRAPHY): active; positive

O=C(CCl)CCl
mutagenic call [1]: inactive; negative | mutagenic call (Test System: AMES SALMONELLA TYPHIMURIUM, Strain/Indicator: TA100, Metabolic Activation: NONE, Method: FLUCTUATION TEST): active; positive | mutagenic call [3]: active; positive | mutagenic call (Test System: AMES SALMONELLA TYPHIMURIUM, Strain/Indicator: TA100, Metabolic Activation: RAT, LIVER, S-9, AROCLOR 1254, Method: FLUCTUATION TEST): inactive; negative | mutagenic call [4]: active; positive | mutagenic call [6]: active; positive | mutagenic call (Test System: AMES SALMONELLA TYPHIMURIUM, Strain/Indicator: TA1535, Metabolic Activation: RAT, LIVER, S-9, AROCLOR 1254, Method: STANDARD PLATE): active; positive

O=Nc1ccccc1-c1ccccc1
mutagenic call [1]: inactive; negative | mutagenic call [3]: active; positive

BrCC(Br)c1ccccc1 (stereo not given)
mutagenic call (Test System: AMES SALMONELLA TYPHIMURIUM, Strain/Indicator: TA100/NG-57, Metabolic Activation: CELL PRETREATMENT WITH GLUTATHIONE, Method: PREINCUBATION): active; positive | mutagenic call (Test System: AMES SALMONELLA TYPHIMURIUM, Strain/Indicator: TA100/NG-57, Metabolic Activation: NONE, Method: PREINCUBATION): active; positive | mutagenic call (Test System: AMES SALMONELLA TYPHIMURIUM, Strain/Indicator: TA100, Metabolic Activation: CELL PRETREATMENT WITH GLUTATHIONE, Method: PREINCUBATION): active; positive | mutagenic call [5]: active; positive | mutagenic call (Test System: AMES SALMONELLA TYPHIMURIUM, Strain/Indicator: TA100, Metabolic Activation: NONE, Method: SPOT TEST): active; positive

c1ccc2c(c1)ccc1c2ccc2c3ccccc3ccc21
mutagenic call (Test System: AMES SALMONELLA TYPHIMURIUM, Strain/Indicator: TA100, Metabolic Activation: MOUSE, LIVER, S-10, AROCLOR 1254): active; positive
